{"source": "patent US20150105252A1", "about": "“SUBSTITUTED PYRAZOLES AS HERBICIDES” (E I DU PONT DE NEMOURS AND COMPANY, priority 2013, published 2015)", "key": {"[1]": {"test_system": "kochia", "assay": "Test C postemergence", "assay_type": "in vivo, Kochia scoparia", "summary_of_the_method": "(§1)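 Scores of 0 (no effect) to 100 (complete control) were assigned by eye after 13–15 days, comparing treated pots with controls. Soil-applied (preemergence) treatments went onto seeds in loam and sand; foliar (postemergence) treatments onto 1- to 4-leaf plants in peat medium.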"}, "[2]": {"test_system": "lambsquarters", "assay": "Test C preemergence", "assay_type": "in vivo, Chenopodium album", "settings": "preemergence", "summary_of_the_method": "as §1"}, "[3]": {"test_system": "oat, wild", "assay": "Test C postemergence", "assay_type": "in vivo, Avena fatua", "summary_of_the_method": "as §1"}, "[4]": {"test_system": "foxtail, giant", "assay": "Test C postemergence", "assay_type": "in vivo, Setaria faberii", "summary_of_the_method": "as §1"}, "[5]": {"test_system": "blackgrass", "assay": "Test C postemergence", "assay_type": "in vivo, Alopecurus myosuroides", "summary_of_the_method": "as §1"}, "[6]": {"test_system": "ryegrass, Italian", "assay": "Test C postemergence", "assay_type": "in vivo, Lolium multiflorum", "settings": "postemergence", "summary_of_the_method": "as §1"}, "[7]": {"test_system": "nutsedge, yellow", "assay": "Test C postemergence", "assay_type": "in vivo, Cyperus esculentus", "summary_of_the_method": "as §1"}, "[8]": {"test_system": "velvetleaf", "assay": "Test C postemergence", "assay_type": "in vivo, Abutilon theophrasti", "settings": "postemergence, 250 g ai/ha; scale 0 to 100 (0 no effect, 100 complete control)", "summary_of_the_method": "as §1"}, "[9]": {"test_system": "galium", "assay": "Test C postemergence", "assay_type": "in vivo, Galium aparine", "summary_of_the_method": "as §1"}, "[10]": {"test_system": "oilseed rape", "assay": "Test C postemergence", "assay_type": "in vivo, Brassica napus", "settings": "postemergence", "summary_of_the_method": "as §1"}, "[11]": {"test_system": "morningglory", "assay": "Test C postemergence", "assay_type": "in vivo, Ipomoea coccinea", "summary_of_the_method": "as §1"}, "[12]": {"test_system": "crabgrass, large", "assay": "Test C postemergence", "assay_type": "in vivo, Digitaria sanguinalis", "summary_of_the_method": "as §1"}, "[13]": {"test_system": "lambsquarters", "assay": "Test C postemergence", "assay_type": "in vivo, Chenopodium album", "summary_of_the_method": "as §1"}, "[14]": {"test_system": "barnyardgrass", "assay": "Test C postemergence", "assay_type": "in vivo, Echinochloa crus-galli", "summary_of_the_method": "as §1"}, "[15]": {"test_system": "waterhemp", "assay": "Test C postemergence", "assay_type": "in vivo, Amaranthus rudis", "settings": "postemergence, 250 g ai/ha; scale 0 to 100 (0 no effect, 100 complete control)", "summary_of_the_method": "as §1"}, "[16]": {"settings": "Postemergence, 31 g ai/ha, visually evaluated after 13 to 15 days"}, "[17]": {"settings": "postemergence, 62 g ai/ha, scale 0 to 100"}, "[18]": {"settings": "postemergence, 250 g ai/ha, scale 0 to 100 (0 no effect, 100 complete control)"}, "[19]": {"settings": "postemergence, 125 g ai/ha, scale 0 to 100, 0 no effect, 100 complete control"}, "[20]": {"settings": "250 g ai/ha, scale 0 to 100 (0 no effect, 100 complete control)"}, "[21]": {"settings": "125 g ai/ha, scale 0 to 100, 0 no effect, 100 complete control"}}, "data": [{"smiles": "CCOc1cc(C(=O)NC2CC2)nn1Cc1ccnc(C(F)(F)F)c1", "note": "[Compound 189]", "values": [{"measurement": "Plant response rating (scale of 0 to 100 where 0 is no effect and 100 is complete control), Kochia", "setting": "[1]; [16]", "value": 85}, {"measurement": "Kochia plant response rating", "setting": "[1]; [17]", "value": 90}, {"measurement": "Plant response rating, Kochia", "setting": "[1]; [18]", "value": 90}, {"measurement": "Plant response rating, Kochia", "setting": "[1]; [19]", "value": 90}, {"measurement": "Lambsquarters plant response rating", "setting": "[2]; 31 g ai/ha, visual rating, scale 0 to 100 (0 no effect, 100 complete control), 13 to 15 days", "value": 98}, {"measurement": "Lambsquarters plant response rating", "setting": "[2]; 62 g ai/ha, scale 0 to 100 (0 no effect, 100 complete control), 13 to 15 days", "value": 100}, {"measurement": "Plant response rating, Lambsquarters", "setting": "[2]; 125 g ai/ha, 13 to 15 days, scale 0 to 100, 0 = no effect, 100 = complete control", "value": 100}, {"measurement": "Lambsquarters plant response rating", "setting": "[2]; 250 g ai/ha, scale 0 to 100, 0 is no effect, 100 is complete control", "value": 100}, {"measurement": "Plant response rating (scale of 0 to 100 where 0 is no effect and 100 is complete control), Oat, Wild", "setting": "[3]; [16]", "value": 10}, {"measurement": "Oat, Wild plant response rating", "setting": "[3]; [17]", "value": 15}, {"measurement": "Plant response rating, Oat, Wild", "setting": "[3]; [18]", "value": 60}, {"measurement": "Plant response rating, Oat, Wild", "setting": "[3]; [19]", "value": 30}, {"measurement": "Plant response rating (scale of 0 to 100 where 0 is no effect and 100 is complete control), Foxtail, Giant", "setting": "[4]; [16]", "value": 10}, {"measurement": "Foxtail, Giant plant response rating", "setting": "[4]; [17]", "value": 10}, {"measurement": "Plant response rating, Foxtail, Giant", "setting": "[4]; [18]", "value": 75}, {"measurement": "Plant response rating, Foxtail, Giant", "setting": "[4]; [19]", "value": 25}, {"measurement": "Plant response rating (scale of 0 to 100 where 0 is no effect and 100 is complete control), Blackgrass", "setting": "[5]; [16]", "value": 5}, {"measurement": "Blackgrass plant response rating", "setting": "[5]; [17]", "value": 5}, {"measurement": "Plant response rating, Blackgrass", "setting": "[5]; [18]", "value": 50}, {"measurement": "Plant response rating, Blackgrass", "setting": "[5]; [19]", "value": 10}, {"measurement": "Plant response rating, Ryegrass, Italian", "setting": "[6]; [20]", "value": 40}, {"measurement": "Plant response rating, Ryegrass, Italian", "setting": "[6]; [21]", "value": 5}, {"measurement": "Plant response rating (scale of 0 to 100 where 0 is no effect and 100 is complete control), Nutsedge, Yellow", "setting": "[7]; [16]", "value": 5}, {"measurement": "Nutsedge, Yellow plant response rating", "setting": "[7]; [17]", "value": 5}, {"measurement": "Plant response rating, Nutsedge, Yellow", "setting": "[7]; [18]", "value": 20}, {"measurement": "Plant response rating, Nutsedge, Yellow", "setting": "[7]; [19]", "value": 5}, {"measurement": "Plant response rating, Velvetleaf", "setting": "[8]", "value": 75}, {"measurement": "Plant response rating (scale of 0 to 100 where 0 is no effect and 100 is complete control), Galium", "setting": "[9]; [16]", "value": 80}, {"measurement": "Galium plant response rating", "setting": "[9]; [17]", "value": 80}, {"measurement": "Plant response rating, Galium", "setting": "[9]; [18]", "value": 90}, {"measurement": "Plant response rating, Galium", "setting": "[9]; [19]", "value": 90}, {"measurement": "Oilseed Rape plant response rating", "setting": "[10]; 62 g ai/ha, scale 0 to 100", "value": 60}, {"measurement": "Plant response rating, Oilseed Rape", "setting": "[10]; [20]", "value": 90}, {"measurement": "Plant response rating, Oilseed Rape", "setting": "[10]; [21]", "value": 65}, {"measurement": "Plant response rating (scale of 0 to 100 where 0 is no effect and 100 is complete control), Morningglory", "setting": "[11]; [16]", "value": 75}, {"measurement": "Morningglory plant response rating", "setting": "[11]; [17]", "value": 80}, {"measurement": "Plant response rating, Morningglory", "setting": "[11]; [18]", "value": 98}, {"measurement": "Plant response rating, Morningglory", "setting": "[11]; [19]", "value": 95}, {"measurement": "Plant response rating (scale of 0 to 100 where 0 is no effect and 100 is complete control), Crabgrass, Large", "setting": "[12]; [16]", "value": 5}, {"measurement": "Crabgrass, Large plant response rating", "setting": "[12]; [17]", "value": 5}, {"measurement": "Plant response rating, Crabgrass, Large", "setting": "[12]; [18]", "value": 90}, {"measurement": "Plant response rating, Crabgrass, Large", "setting": "[12]; [19]", "value": 65}, {"measurement": "Plant response rating (scale of 0 to 100 where 0 is no effect and 100 is complete control), Lambsquarters", "setting": "[13]; [16]", "value": 60}, {"measurement": "Lambsquarters plant response rating", "setting": "[13]; [17]", "value": 70}, {"measurement": "Plant response rating, Lambsquarters", "setting": "[13]; [18]", "value": 85}, {"measurement": "Plant response rating, Lambsquarters", "setting": "[13]; [19]", "value": 95}, {"measurement": "Plant response rating (scale of 0 to 100 where 0 is no effect and 100 is complete control), Barnyardgrass", "setting": "[14]; [16]", "value": 5}, {"measurement": "Barnyardgrass plant response rating", "setting": "[14]; [17]", "value": 5}, {"measurement": "Plant response rating, Barnyardgrass", "setting": "[14]; [18]", "value": 55}, {"measurement": "Plant response rating, Barnyardgrass", "setting": "[14]; [19]", "value": 20}, {"measurement": "Plant response rating, Waterhemp", "setting": "[15]", "value": 90}]}]}
